# Results taken from publication PMC7570852, “Ruthenium(II)/(III) DMSO-Based Complexes of 2-Aminophenyl Benzimidazole with In Vitro and In Vivo Anticancer Activity” (Molecules, 2020).
# Where “and” joins values, the source holds several entries; their conditions need not be identical. Equal values may be shown once. Read-outs that look alike come from different tables or passages of the source.
# Key:
# [1] = test system: human breast cancer (MCF7) cells; assay: MTT cell viability assay, MCF7; type: cell-based; conditions: for IC50: read-out: IC50 MCF-7
# Method: (§1) The cytotoxic effect of the Hapbim ligand and its complexes (1) and (2) on human breast cancer (MCF7), human colorectal cancer (Caco2), and human normal liver (THLE-2) cell lines was evaluated by the MTT assay. The cells were cultured in a 96-well plate (1 × 10^4 cells/well, 100 μL/well) containing DMEM medium provided with 10% fetal bovine serum, and 1% penicillin/streptomycin. Then, the cells were incubated at 37 °C for 24 h in a CO2 incubator under 5% CO2, 95% air until reaching a confluence of 70–80%. A 20 μL volume of each compound at different concentrations (from 5 to 400 μM for the cancer cell and from 600 to 1000 μM for the normal cells) was added and the cells were re-incubated for a further 24 h. After the incubation period, the cells were incubated again with 5 mg/mL of MTT for 4 h and then the medium was replaced with 100 μL DMSO and vortexed for 20 min. Finally, the absorbance was recorded at 570 nm using the microplate reader. […] To calculate the cell inhibition percentage, the following equation was used:% Cell inhibition = 100 − % cell viability ((At − Ab)/(Ac − Ab)) × 100%)(4) where At is the absorbance value of tested compound; Ab is the absorbance value of blank; Ac is the absorbance value of the control.
# [2] = test system: human colorectal cancer (Caco2) cells; assay: MTT cell viability assay, Caco2; type: cell-based; conditions: for Therapeutic index: IC50 of THLE-2 cell/IC50 of Caco2: in vitro
# Method: as §1
# [3] = test system: Ehrlich ascites carcinoma (EAC) cells; parameters: method as in PMID 28599251; conditions: literature comparison; cited from earlier work
# Cyclic voltammetry = type: physicochemical; conditions: 10^−3 M in CH2Cl2/DMSO, 0.1 M (Bu4N)PF6, scan rate 50 mVs^−1
# Method: Elemental analyses (C, H, N) were performed by the Microanalysis unit in the Department of Chemistry at Simon Fraser University. Infrared spectra (FTIR) were performed on a JASCO 4100 FTIR spectrophotometer in the 4000–400 cm^−1 range using a KBr disc. NMR (^1H and ^13C) spectra were recorded in DMSO-d6 solvent using a Bruker 400 MHz instrument. The 2D NMR analysis (^1H–^1H COSY) was performed on a Jeol 500 MHz NMR, at Mansoura University. ESI/APCI HRMS data were acquired on a Thermo Scientific Exactive Plus Orbitrap mass spectrometer. Electronic spectra (in DMSO, 200–900 nm) were measured on a JASCO 630 V spectrophotometer. Emission spectra of the complexes were measured on a Jenway model 6285 spectrofluorimeter for excitation and emission spectra, 200–700 nm. The magnetic susceptibility of the complexes was measured on a Johnson Matthey magnetic susceptibility balance. […] A microplate reader (StatFax-2100, Awareness Technology, Inc., Palm City, FA, USA), Attune flow cytometer (Applied Biosystems, Foster City, CA, USA), Quawell nanodrop Q5000 (San Jose, CA, USA), StepOnePlus real time PCR system (Applied Biosystems, Foster City, CA, USA), and CO2 incubator (NuAire In-Vitro Cell, Plymouth, MN, USA) were used in biological studies.
# [4] = Solution stability by UV-Vis spectroscopy; type: physicochemical; conditions: 4% DMSO, 96% PBS, pH 7.4, over 24 h
# Method: Stability studies of complexes (1) and (2) were carried out by UV-Vis spectroscopy in the 200–900 nm range. […] The electronic spectra for the solutions were measured over 24 h.
# CT DNA (EB-DNA adduct) = assay: Ethidium bromide (EB-DNA) competitive fluorescence assay; type: binding, calf; conditions: [DNA] = [EB] = 5 μM
# Method: The binding affinity of the metal complexes towards CT DNA was evaluated using competitive fluorescence studies. CT DNA pretreated with ethidium bromide (EB) ([DNA] = [EB] = 5 μM) in Tris-HCl/NaCl buffer (pH = 7.2) was incubated with the complexes in concentrations of 0–90 μM. […] The quenching of EB-DNA adduct fluorescence was followed by monitoring the emission spectra in the wavelength range of 530–650 nm. Upon addition of the metal complexes to the EB-DNA adduct, the quenching binding constant (Kq) at λ = 585 nm is determined from the Stern-Volmer Equation (2):I0/I = 1 + Kq[Q](2) where I0 and I are the fluorescence intensities of EB-DNA in the […] of the metal complexes, respectively, [Q] is the concentration of the tested compounds, and Kq is the quenching constant calculated from the slope of the straight line obtained from plotting Io/I vs. [Q]. In addition, the apparent binding constant can be calculated from Equation (3):KEB[EB] = Kapp[Q](3) where KEB = 1 × 10^7 M^−1 [EB] is the ethidium bromide concentration (5 μM) and [Q] is the concentration of the quencher that provides a 50% intensity reduction of the initial EB-DNA adduct.
compound,measurement,setting,value
"N.N.[Cl][Pt][Cl] [Cisplatin, reference compound]",IC50 MCF-7,[1]; 24 h,22 ± 1 µg/mL
same,IC50,[1]; 24 h,73 ± 5 µM
"Nc1ccccc1-c1nc2ccccc2[nH]1 [Hapbim, 2-aminophenyl benzimidazole]",IC50,"[2]; Homo sapiens, Caco-2, MTT, 24 h",80 µg/mL and 380 µM
same,Therapeutic index: IC50 of THLE-2 cell/IC50 of Caco2,[2],14.2
same,IC50,"[1]; Homo sapiens, MCF7, 24 h",61 µg/mL and 290 µM
CN(Cc1cnc2nc(N)nc(N)c2n1)c1ccc(C(=O)N[C@@H](CCC(=O)O)C(=O)O)cc1 [methotrexate],IC50 against EAC cells,[3],98 ± 2 µg/mL
[Ru(II)Cl2(DMSO)2(Hapbim)] [(1)],E1/2 (Ru(II)/Ru(III) redox couple),Cyclic voltammetry,615 mV
same,IC50,"[2]; MTT, 24 h",290 ± 20 µM
same,IC50 Caco2,"[2]; MTT, 24 h",155 ± 9 µg/mL
same,Therapeutic index: IC50 of THLE-2 cell/IC50 of Caco2,[2],6.4
same,solution stability (UV-Vis spectral change),[4],remain relatively unchanged over the first two hours
same,Kapp (apparent binding constant),CT DNA (EB-DNA adduct); KEB = 1 × 10^7 M^−1,1.08 ± 0.11 × 10^7 M^−1
same,Kq (quenching constant),"CT DNA (EB-DNA adduct); Stern-Volmer, 585 nm",1.96 ± 0.04 × 10^3 M^−1
same,IC50 MCF-7,[1]; 24 h,170 ± 10 µg/mL
same,IC50,[1]; 24 h,320 ± 20 µM
